Experimental data as given in US11590116B2 (THERAVANCE BIOPHARMA R&D IP, LLC, priority 2019, dated 2023).

How the values were obtained:
[1] = biological target: T1, recombinant human ALK5 (TGF-βR1) protein (Homo sapiens, UniProt P36897); test: Biochemical ALK5 (TGF-βR1) assay to measure pKi (LANCE Ultra ULight kinase assay); conditions: apparent pKi from pIC50 by Cheng-Prusoff, read-out: ALK5 pKi (converted)
T1 construct: purchased Life Technologies PR9075A
T1 sequence (P36897 34-503): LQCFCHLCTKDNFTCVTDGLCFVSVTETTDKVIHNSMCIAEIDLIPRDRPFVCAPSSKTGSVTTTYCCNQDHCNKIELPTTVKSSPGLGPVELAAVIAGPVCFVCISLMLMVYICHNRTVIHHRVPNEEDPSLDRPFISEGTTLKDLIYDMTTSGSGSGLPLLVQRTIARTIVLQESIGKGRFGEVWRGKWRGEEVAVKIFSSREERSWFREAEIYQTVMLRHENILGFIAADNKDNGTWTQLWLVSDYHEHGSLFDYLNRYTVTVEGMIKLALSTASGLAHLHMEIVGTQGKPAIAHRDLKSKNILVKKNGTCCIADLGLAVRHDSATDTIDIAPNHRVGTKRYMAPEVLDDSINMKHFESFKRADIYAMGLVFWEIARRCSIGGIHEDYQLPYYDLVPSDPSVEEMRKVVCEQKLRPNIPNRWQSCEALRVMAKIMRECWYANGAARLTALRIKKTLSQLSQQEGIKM
Method in brief: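 After a 60 min room-temperature preincubation of ALK5 with compound, phosphorylation proceeds 60 min at 37 °C on ATP addition (125 μM as 5× stock). Detection: Eu-labelled phospho-Thr1342 Topo IIα antibody in EDTA buffer, pH 7.0; emission 665 nm.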

[2] = system: TGF-β-stimulated SMAD3 phosphorylation in BEAS-2B cells; test: Cellular ALK5 potency assay, inhibition of TGF-β stimulated pSMAD3 formation in BEAS-2B cells; format: cell-based; conditions: Homo sapiens; inhibition of TGF-β stimulated pSMAD3 formation, BEAS-2B cells; read-out: BEAS2B pIC50 (converted)
Method in brief: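 pSMAD3 was quantified by AlphaLISA in BEAS-2B lysates after 10 ng/mL TGF-β (final) for 30 min. Before stimulation, cells received compound for 1 h at 37° C in supplemented HBSS. Values are pIC50, relative to TGF-β-stimulated cells without compound.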

Ki [1] [nM] | Structure (SMILES) | IC50 [2] [nM]
0.0398 to 0.316 | Cc1nc(-c2nc3ccccn3c2-c2ccc3ncc(-c4cnn(C5CCCNC5)c4)cc3n2)ccc1F (centres unmarked) [Compound 576, 2-[2-(5-fluoro-6-methyl-2-pyridyl)imidazo[1,2-a]pyridin-3-yl]-7-[1-(3-piperidyl)pyrazol-4-yl]-1,5-naphthyridine] | 25.1 to 158
0.0398 to 0.316 | Cc1cccc(-c2[nH]cnc2-c2ccc3ncc(-c4ccc(C(=O)OCC5CNC5)cc4)cc3c2)n1 [Compound 650, azetidin-3-ylmethyl 4-[6-[5-(6-methyl-2-pyridyl)-1H-imidazol-4-yl]-3-quinolyl]benzoate] | 25.1 to 158
0.0398 to 0.316 | Cc1cccc(-c2n[nH]cc2-c2ccc3ncc(-c4nc(CN5CCN(C(C)C)CC5)co4)cc3n2)n1 [Compound 246, 4-[(4-isopropylpiperazin-1-yl)methyl]-2-[6-[3-(6-methyl-2-pyridyl)-1H-pyrazol-4-yl]-1,5-naphthyridin-3-yl]oxazole] | 25.1 to 158
0.0398 to 0.316 | Cc1cccc(-c2[nH]c(O)nc2-c2ccc3ncc(C4=CCC5(CCNCC5)CC4)cc3c2)n1 [Compound 1198, 4-[3-(3-azaspiro[5.5]undec-9-en-9-yl)-6-quinolyl]-5-(6-methyl-2-pyridyl)-1H-imidazol-2-ol] | 200 to 1260
0.398 to 3.16 | Cc1cccc(-c2[nH]ncc2-c2ccc3nccc(C(=O)O[C@H]4CC[C@H](N)CC4)c3c2)n1 [Compound 1217, (4-aminocyclohexyl) 6-[5-(6-methyl-2-pyridyl)-1H-pyrazol-4-yl]quinoline-4-carboxylate] | 25.1 to 158
0.0398 to 0.316 | Cc1nc(-c2n[nH]cc2-c2ccc3ncc(-c4nc(C)c(CCN)[nH]4)cc3n2)ccc1F [Compound 483, 2-[2-[6-[3-(5-fluoro-6-methyl-2-pyridyl)-1H-pyrazol-4-yl]-1,5-naphthyridin-3-yl]-4-methyl-1H-imidazol-5-yl]ethanamine] | 200 to 1260
< 0.0316 | Cc1nc(-c2n[nH]cc2-c2ccc3ncc(-c4cnn([C@@H]5CCCC[C@H]5N)c4)cc3n2)ccc1F [Compound 490, (1R,2R)-2-(4-(6-(3-(5-fluoro-6-methylpyridin-2-yl)-1H-pyrazol-4-yl)-1,5-naphthyridin-3-yl)-1H-pyrazol-1-yl)cyclohexan-1-amine] | < 20
0.0398 to 0.316 | COC(=O)c1cnc2ccc(-c3nc[nH]c3-c3cccc(C)n3)cc2c1 [Compound 732, methyl 6-[5-(6-methyl-2-pyridyl)-1H-imidazol-4-yl]quinoline-3-carboxylate] | < 20
< 0.0316 | Cc1cccc(-c2[nH]cnc2-c2ccc3ncc(C4=CCC(N)CC4)cc3c2)n1 (centres unmarked) [Compound 196, 4-[6-[5-(6-methyl-2-pyridyl)-1H-imidazol-4-yl]-3-quinolyl]cyclohex-3-en-1-amine] | < 20
0.0398 to 0.316 | Cc1cccc(-c2n[nH]cc2-c2ccc3ncc(CCCN4CCOCC4)cc3n2)n1 [Compound 261, 4-[3-[6-[3-(6-methyl-2-pyridyl)-1H-pyrazol-4-yl]-1,5-naphthyridin-3-yl]propyl]morpholine] | 25.1 to 158
0.0398 to 0.316 | Cc1cccc(-c2[nH]cnc2-c2ccc3ncc(NCCN4CCNCC4)cc3c2)n1 [Compound 122, 6-[5-(6-methyl-2-pyridyl)-1H-imidazol-4-yl]-N-(2-piperazin-1-ylethyl)quinolin-3-amine] | 25.1 to 158
< 0.0316 | Cc1cccc(-c2[nH]cnc2-c2ccc3ncc(C4=CCC(NC(C)C)CC4)cc3n2)n1 (centres unmarked) [Compound 258, N-isopropyl-4-(6-(5-(6-methylpyridin-2-yl)-1H imidazol-4-yl)-1,5-naphthyridin-3-yl)cyclohex-3-en-1-amine] | 25.1 to 158
0.0398 to 0.316 | Cc1cccc(-c2nnn(Cc3ccccc3)c2-c2ccc3ncc(-c4cnn(C5CCCNC5)c4)cc3n2)n1 (centres unmarked) [Compound 216, 2-(1-benzyl-4-(6-methylpyridin-2-yl)-1H-1,2,3-triazol-5-yl)-7-(1-(piperidin-3-yl)-1H-pyrazol-4-yl)-1,5-naphthyridine] | 25.1 to 158
0.0398 to 0.316 | Cc1nc(-c2n[nH]cc2-c2ccc3ncc(N4CCCNCC4)cc3n2)ccc1F [Compound 318, 7-(1,4-diazepan-1-yl)-2-[3-(5-fluoro-6-methyl-2-pyridyl)-1H-pyrazol-4-yl]-1,5-naphthyridine] | 25.1 to 158
0.0398 to 0.316 | COC(=O)C1CN(CCNc2cnc3ccc(-c4c[nH]nc4-c4cccc(C)n4)nc3c2)CCN1 (centres unmarked) [Compound 137, methyl 4-[2-[[6-[3-(6-methyl-2-pyridyl)-1H-pyrazol-4-yl]-1,5-naphthyridin-3-yl]amino]ethyl]piperazine-2-carboxylate] | 1580 to 10000
< 0.0316 | Cc1cccc(-c2n[nH]cc2-c2ccc3ncc(N4CCC(O)CC4)cc3n2)n1 [Compound 282, 1-[6-[3-(6-methyl-2-pyridyl)-1H-pyrazol-4-yl]-1,5-naphthyridin-3-yl]piperidin-4-ol] | < 20
0.0398 to 0.316 | Cc1cccc(-c2[nH]cnc2-c2ccc3ncc(-c4ncc(CN5C[C@@H](C)N[C@@H](C)C5)s4)cc3c2)n1 [Compound 1028, 5-[[(3S,5R)-3,5-dimethylpiperazin-1-yl]methyl]-2-[6-[5-(6-methyl-2-pyridyl)-1H-imidazol-4-yl]-3-quinolyl]thiazole] | < 20
0.0398 to 0.316 | Cc1cccc(-c2n[nH]cc2-c2ccc3ncc(-c4c(C)nn(C)c4C)cc3n2)n1 [Compound 426, 2-[3-(6-methyl-2-pyridyl)-1H-pyrazol-4-yl]-7-(1,3,5-trimethylpyrazol-4-yl)-1,5-naphthyridine] | 25.1 to 158
0.0398 to 0.316 | Cc1cccc(-c2n[nH]cc2-c2ccc3ncc(NCC(C)(C)N4CCN(C(C)C)CC4)cc3n2)n1 [Compound 698, N-[2-(4-isopropylpiperazin-1-yl)-2-methyl-propyl]-6-[3-(6-methyl-2-pyridyl)-1H-pyrazol-4-yl]-1,5-naphthyridin-3-amine] | 25.1 to 158
0.0398 to 0.316 | Cc1cccc(-c2n[nH]cc2-c2ccc3ncc(Nc4ccc(N5CCNCC5)cc4)cc3c2)n1 [Compound 488, 6-[3-(6-methyl-2-pyridyl)-1H-pyrazol-4-yl]-N-(4-piperazin-1-ylphenyl)quinolin-3-amine] | 25.1 to 158
0.0398 to 0.316 | Cc1cccc(-c2n[nH]cc2-c2ccc3ncc(N4CCC(N5CCN(C)CC5)CC4)cc3c2)n1 [Compound 82, 3-(4-(4-Methylpiperazin-1-yl)piperidin-1-yl)-6-(3-(6-methylpyridin-2-yl)-1H-pyrazol-4-yl)quinoline] | 25.1 to 158
< 0.0316 | Cc1cccc(-c2[nH]cnc2-c2ccc3ncc(-c4csc(C(=O)OC[C@H]5CC[C@H](N)CC5)c4)cc3c2)n1 [Compound 1171, (4-aminocyclohexyl)methyl 4-[6-[5-(6-methyl-2-pyridyl)-1H-imidazol-4-yl]-3-quinolyl]thiophene-2-carboxylate] | 25.1 to 158
< 0.0316 | Cc1cccc(-c2n[nH]cc2-c2ccc3ncc(-c4ccc(O)nc4)cc3n2)n1 [Compound 374, 5-[6-[3-(6-methyl-2-pyridyl)-1H-pyrazol-4-yl]-1,5-naphthyridin-3-yl]pyridin-2-ol] | 25.1 to 158
0.0398 to 0.316 | Cc1cccc(-c2[nH]cnc2-c2ccc3ncc(-c4cccc(C(=O)O[C@H]5CCNC5)n4)cc3c2)n1 [Compound 1089, [(3S)-pyrrolidin-3-yl] 6-[6-[5-(6-methyl-2-pyridyl)-1H-imidazol-4-yl]-3-quinolyl]pyridine-2-carboxylate] | 25.1 to 158
0.0398 to 0.316 | Cc1cccc(-c2[nH]cnc2-c2ccc3ncc(NCCN4CCNC(C(=O)O)C4)cc3c2)n1 (centres unmarked) [Compound 712, 4-[2-[[6-[5-(6-methyl-2-pyridyl)-1H-imidazol-4-yl]-3-quinolyl]amino]ethyl]piperazine-2-carboxylic acid] | 200 to 1260
0.0398 to 0.316 | Cc1cccc(-c2n[nH]cc2-c2ccc3ncc(-c4cc[nH]n4)cc3n2)n1 [Compound 612, 2-[3-(6-methyl-2-pyridyl)-1H-pyrazol-4-yl]-7-(1H-pyrazol-3-yl)-1,5-naphthyridine] | 25.1 to 158
< 0.0316 | Cc1cccc(-c2n[nH]cc2-c2ccc3ncc(-c4c[nH]nn4)cc3n2)n1 [Compound 355, 2-[3-(6-methyl-2-pyridyl)-1H-pyrazol-4-yl]-7-(1H-triazol-4-yl)-1,5-naphthyridine] | < 20
< 0.0316 | Cc1cccc(-c2[nH]cnc2-c2ccc3ncc(C4=CCC(N(C)C)CC4)cc3n2)n1 (centres unmarked) [Compound 452, N,N-dimethyl-4-[6-[5-(6-methyl-2-pyridyl)-1H-imidazol-4-yl]-1,5-naphthyridin-3-yl]cyclohex-3-en-1-amine] | 25.1 to 158
